Patent publication US11524966B1 (Valo Early Discovery, Inc., priority 2017, dated 2022)

Target: T1, USP28 (USP28-5(1-1077)-TEV-6*His; LifeSensors) (Homo sapiens, UniProt Q96RU2)
T1 construct: construct USP28 (USP28-5(1-1077)-TEV-6*His; LifeSensors); TEV cleavage site (C); 6xHis (C); purchased LifeSensors
T1 sequence (Q96RU2 1-1077): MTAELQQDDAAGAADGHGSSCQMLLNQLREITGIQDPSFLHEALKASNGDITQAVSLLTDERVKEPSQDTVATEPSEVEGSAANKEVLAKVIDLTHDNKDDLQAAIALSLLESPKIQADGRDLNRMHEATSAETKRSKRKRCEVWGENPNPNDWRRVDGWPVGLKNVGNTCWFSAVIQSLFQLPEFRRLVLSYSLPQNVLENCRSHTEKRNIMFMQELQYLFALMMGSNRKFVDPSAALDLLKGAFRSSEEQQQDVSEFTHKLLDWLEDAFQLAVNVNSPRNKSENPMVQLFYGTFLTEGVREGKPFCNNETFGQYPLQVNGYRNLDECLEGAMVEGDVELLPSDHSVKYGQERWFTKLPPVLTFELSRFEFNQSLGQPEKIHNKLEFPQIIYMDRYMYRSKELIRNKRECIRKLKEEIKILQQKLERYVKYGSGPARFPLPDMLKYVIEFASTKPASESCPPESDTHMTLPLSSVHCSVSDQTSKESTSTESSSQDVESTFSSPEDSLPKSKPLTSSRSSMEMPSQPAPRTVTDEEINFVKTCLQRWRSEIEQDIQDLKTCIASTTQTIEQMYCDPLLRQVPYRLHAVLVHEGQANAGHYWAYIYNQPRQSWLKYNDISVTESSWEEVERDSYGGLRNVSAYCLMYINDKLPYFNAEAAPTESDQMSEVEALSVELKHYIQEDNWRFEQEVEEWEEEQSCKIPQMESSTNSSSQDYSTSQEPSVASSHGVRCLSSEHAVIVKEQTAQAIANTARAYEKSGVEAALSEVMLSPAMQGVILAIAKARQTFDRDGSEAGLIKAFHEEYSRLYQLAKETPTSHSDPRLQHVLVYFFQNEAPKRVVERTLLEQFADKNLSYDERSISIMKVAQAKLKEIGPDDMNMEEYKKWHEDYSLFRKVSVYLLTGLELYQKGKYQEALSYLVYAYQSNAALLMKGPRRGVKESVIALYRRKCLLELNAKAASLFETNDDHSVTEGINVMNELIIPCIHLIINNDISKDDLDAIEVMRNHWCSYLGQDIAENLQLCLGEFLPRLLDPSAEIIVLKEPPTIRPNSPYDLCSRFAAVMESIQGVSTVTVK
Experiment: Ubiquitin-Rhodamine 110 Assay for USP28 Activity, Example A-1(b)
Assay type: biochemical
Conditions: Ubiquitin-Rhodamine 110 assay, Example A-1(b)
Method in brief: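 Single-point screening used 10 μM compound with 90 min room-temperature incubation; follow-up dose-responses (25 μM top, 3-fold) used 75 pM USP28 1-1077 construct, 30 min compound preincubation, 25 nM Ub-Rh110, 20 min reaction, citric acid quench. Rh110 fluorescence normalised to no-enzyme and DMSO controls; IC50 from 4-parameter logistic fit.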

Cc1ccc2c(N)c(C(=O)N[C@H]3COc4cc(N5CCNCC5)cc(F)c4C3)oc2n1 [Example 169, 3-amino-N-[(3R)-5-fluoro-7-(piperazin-1-yl)-3,4-dihydro-2H-1-benzopyran-3-yl]-6-methylfuro[2,3-b]pyridine-2-carboxamide]
USP28 A-1(b) IC50 range: + (>2 μM)
